Laboratory results from ChEMBL document CHEMBL1150701, “A direct bioautographic tlc assay for compounds possessing antibacterial activity” (1987).
Activity calls are given as the source filed them. The calls are words filed in the database; no cut-off is given here.

How the values were obtained:
Escherichia coli [1] = experiment: Antibacterial activity against Escherichia coli ATCC 25922 after 48 hrs by silica gel plate-based INT-formazan method; format: functional
Bacillus subtilis [2] = experiment: Antibacterial activity against Bacillus subtilis ATCC 6633 after 48 hrs by silica gel plate-based INT-formazan method; format: functional
Bacillus subtilis [3] = experiment: Antibacterial activity against Bacillus subtilis ATCC 6633 at 5 ug after 48 hrs by silica gel plate-based INT-formazan method; format: functional, organism-based
Escherichia coli [4] = experiment: Antibacterial activity against Escherichia coli ATCC 25922 at 5 ug after 48 hrs by silica gel plate-based INT-formazan method; format: functional, organism-based

SMILES	MIC (Escherichia coli [1])	MIC (Bacillus subtilis [2])	Activity (Bacillus subtilis [3])	Activity (Escherichia coli [4])
CC[C@H](/C=C/[C@@H](C)[C@H]1CC[C@H]2[C@@H]3CC=C4C[C@@H](O)CC[C@]4(C)[C@H]3CC[C@]12C)C(C)C [STIGMASTEROL]	>20 µg	>20 µg	–	–
COc1cc([C@@H]2c3cc4c(c(O)c3C[C@H]3COC(=O)[C@@H]32)OCO4)cc(OC)c1OC	–	–	inactive	inactive
COc1cc([C@@H]2c3cc4c(cc3[C@H](O)[C@H]3COC(=O)[C@H]23)OCO4)cc(OC)c1OC	–	–	Active	Active
CCCCCCCCCCCCCCCC(=O)O [PALMITIC ACID]	>20 µg	>20 µg	–	–
CC[C@@]1(O)C(=O)OCc2c1cc1n(c2=O)Cc2cc3cc(O)ccc3nc2-1	–	–	inactive	inactive
COC(=O)[C@]12OC[C@]34[C@H]([C@@H](O)[C@@H]1O)[C@@]1(C)[C@H](O)C(=O)C=C(C)[C@@H]1C[C@H]3OC(=O)[C@H](OC(=O)CC(C)C)[C@@H]24	–	–	inactive	inactive
O=C(O)/C=C/c1ccc(O)cc1 [COUMARIC ACID]	5 µg	2.5 µg	–	–
CC1(C)S[C@@H]2[C@H](NC(=O)COc3ccccc3)C(=O)N2[C@H]1C(=O)O [PENICILLIN V]	>2 µg	0.005 µg	–	–
OC[C@H]1O[C@@](CO)(O[C@H]2O[C@H](CO)[C@@H](O)[C@H](O)[C@H]2O)[C@@H](O)[C@@H]1O [SUCROSE]	>20 µg	>20 µg	–	–
CC1=CC(=O)[C@@H](O)[C@]2(C)[C@H]3[C@@]4(O)OC[C@@]35[C@@H](C[C@@H]12)OC(=O)C[C@H]5[C@@H](C)[C@H]4O	–	–	inactive	inactive
CC[C@@]1(O)C(=O)OCc2c1cc1n(c2=O)Cc2cc3ccccc3nc2-1	–	–	inactive	inactive
CC(=O)O[C@H]1C(=O)O[C@@H]2C[C@H]3C(C)=CC(=O)[C@@H](O)[C@]3(C)[C@H]3[C@]4(O)OC[C@]32[C@@H]1[C@@H](C)[C@H]4O	–	–	inactive	inactive
O=c1c(O)c(-c2ccc(O)c(O)c2)oc2cc(O)cc(O)c12 [QUERCETIN]	5 µg	5 µg	–	–
CC[C@@]1(O)C(=O)OCc2c1cc1n(c2=O)Cc2cc3c(OC)cccc3nc2-1	–	–	inactive	inactive
CC[C@H](CC[C@@H](C)[C@H]1CC[C@H]2[C@@H]3CC=C4C[C@@H](O)CC[C@]4(C)[C@H]3CC[C@]12C)C(C)C [BETA-SITOSTEROL]	>20 µg	>20 µg	–	–
COc1cc([C@@H]2c3cc4c(c(O)c3C[C@H]3COC(=O)[C@@H]32)OCO4)cc(OC)c1O	–	–	Active	Active
COc1cc([C@@H]2c3cc4c(cc3C[C@H]3COC(=O)[C@@H]32)OCO4)cc(OC)c1O	–	–	inactive	inactive
CC1=CC(=O)[C@@H](O)[C@]2(C)[C@H]3[C@]4(O)OC[C@]35[C@H]([C@@H](C)[C@H]4O)[C@@H](O)C(=O)O[C@@H]5C[C@@H]12	–	–	inactive	inactive
O=C(N[C@H](CO)[C@H](O)c1ccc([N+](=O)[O-])cc1)C(Cl)Cl [CHLORAMPHENICOL]	0.02 µg	0.01 µg	–	–
